# Measurements from PMC11352961, “Peptide dendrimers transfecting CRISPR/Cas9 plasmid DNA: optimization and mechanism” (RSC Chemical Biology, 2024).
# Bridge positions count the residues as written; N and C are the ends. Square brackets hold non-standard residues; d marks the D form. Side chains are listed from the residue outwards. Peptide text beside a SMILES is read from it. I, II: the chains in the order shown. * marks the point of attachment. Stearoyl = CCCCCCCCCCCCCCCCCC(=O)*; Palmitoyl = CCCCCCCCCCCCCCCC(=O)*
# Columns and labels:
# HEK293 cells [1] = experiment: Cell viability by PrestoBlue assay after transfection, HEK cells; format: cell-based; details: 4 h
# [2] = cited from earlier work
# HeLa cells = experiment: Cell viability by PrestoBlue assay after transfection, HeLa cells; format: cell-based; details: 4 h
# HEK293 cells [3] = format: cell-based; details: 1 h
# in vitro = details: isolated enzyme proteinase k, pH 8
smiles,measurement,setting,value
"CCCCCCCCCCCCCCCC(=O)NCCCC[C@@H](NC(=O)[C@@H](CCCCNC(=O)CCCCCCCCCCCCCCC)NC(=O)[C@@H](CCCCNC(=O)[C@@H](CC(C)C)NC(=O)[C@@H](CC(C)C)NC(=O)[C@@H](CCCCNC(=O)[C@@H](CC(C)C)NC(=O)[C@@H](CCCCN)NC(=O)[C@@H](CCCCNC(=O)[C@@H](CC(C)C)NC(=O)[C@H](N)CCCCN)NC(=O)[C@@H](CC(C)C)NC(=O)[C@H](N)CCCCN)NC(=O)[C@@H](CC(C)C)NC(=O)[C@@H](CCCCN)NC(=O)[C@@H](CCCCNC(=O)[C@@H](CC(C)C)NC(=O)[C@H](N)CCCCN)NC(=O)[C@@H](CC(C)C)NC(=O)[C@H](N)CCCCN)NC(=O)[C@@H](CC(C)C)NC(=O)[C@@H](CC(C)C)NC(=O)[C@@H](CCCCNC(=O)[C@@H](CC(C)C)NC(=O)[C@@H](CCCCN)NC(=O)[C@@H](CCCCNC(=O)[C@@H](CC(C)C)NC(=O)[C@H](N)CCCCN)NC(=O)[C@@H](CC(C)C)NC(=O)[C@H](N)CCCCN)NC(=O)[C@@H](CC(C)C)NC(=O)[C@@H](CCCCN)NC(=O)[C@@H](CCCCNC(=O)[C@@H](CC(C)C)NC(=O)[C@H](N)CCCCN)NC(=O)[C@@H](CC(C)C)NC(=O)[C@H](N)CCCCN)C(N)=O [DMH13, reference compound] (I: H-[dK][dL][dK]([dL-dK])[dK][dL][dK][dL][dL][dK][dK](Palmitoyl)[dK](Palmitoyl)-NH2 / II: H-[dK][dL][dK]([dL-dK])[dK][dL][dK][dL][dL] / III: H-[dK][dL][dK]([dL-dK])[dK][dL] / IV: H-[dK][dL][dK]([dL-dK])[dK][dL]; amide I:6-IV:C, I:9-II:C, II:6-III:C)",% viability HEK cells,HEK293 cells [1],96 ± 6%
same,pKa of dendrimer N-termini,[2],~6.5
"CCCCCCCCCCCCCCCCCC(=O)NCCCC[C@H](NC(=O)[C@H](CCCCNC(=O)[C@H](CC(C)C)NC(=O)[C@H](CCCNC(=N)N)NC(=O)[C@H](CCCCNC(=O)[C@H](CC(C)C)NC(=O)[C@H](CCCNC(=N)N)NC(=O)[C@H](CCCCNC(=O)[C@H](CC(C)C)NC(=O)[C@@H](N)CCCNC(=N)N)NC(=O)[C@H](CC(C)C)NC(=O)[C@@H](N)CCCNC(=N)N)NC(=O)[C@H](CC(C)C)NC(=O)[C@H](CCCNC(=N)N)NC(=O)[C@H](CCCCNC(=O)[C@H](CC(C)C)NC(=O)[C@@H](N)CCCNC(=N)N)NC(=O)[C@H](CC(C)C)NC(=O)[C@@H](N)CCCNC(=N)N)NC(=O)[C@H](CC(C)C)NC(=O)[C@H](CCCNC(=N)N)NC(=O)[C@H](CCCCNC(=O)[C@H](CC(C)C)NC(=O)[C@H](CCCNC(=N)N)NC(=O)[C@H](CCCCNC(=O)[C@H](CC(C)C)NC(=O)[C@@H](N)CCCNC(=N)N)NC(=O)[C@H](CC(C)C)NC(=O)[C@@H](N)CCCNC(=N)N)NC(=O)[C@H](CC(C)C)NC(=O)[C@H](CCCNC(=N)N)NC(=O)[C@H](CCCCNC(=O)[C@H](CC(C)C)NC(=O)[C@@H](N)CCCNC(=N)N)NC(=O)[C@H](CC(C)C)NC(=O)[C@@H](N)CCCNC(=N)N)C(N)=O [Z23] (I: H-RLK([Leu-Arg])RLKRLKK(Stearoyl)-NH2 / II: H-RLK([Leu-Arg])RLKRL / III: H-RLK([Leu-Arg])RL / IV: H-RLK([Leu-Arg])RL; amide I:6-IV:C, I:9-II:C, II:6-III:C)",% viability HEK cells,HEK293 cells [1],83 ± 2%
same,% viability HeLa cells,HeLa cells,95 ± 5%
same,transfection of HEK cells with protease inhibition,HEK293 cells [3],46%
same,"remaining at 1 h, 200 µM",in vitro,45%
same,"remaining at 2 h, 200 µM",in vitro,39.6%
same,"remaining at 3 h, 200 µM",in vitro,24.6%
same,"remaining at 12 h, 200 µM",in vitro,1.66%
same,"remaining at 24 h, 200 µM",in vitro,1.73%
